From ChEMBL document CHEMBL1201862, “PubChem BioAssay data set” (2004)
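Exposure lasted 48 hours, with cells grown in 96-well plates and compounds tested at five concentrations. GI50: concentration for 50% inhibition of growth.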 The source made the active and inactive calls. No stated cut-off is given here; in the data, active = GI50 up to about 1.1 µM and inactive = higher.

What was measured:
Assay in all cases: NCI-60 cell line screen, 48 h
NCI-H460 = system: NCI-H460
BT-549 = system: BT-549
SK-MEL-5 = system: SK-MEL-5
M14 = system: M14
SF-295 = system: SF-295
OVCAR-5 = system: OVCAR-5
DU-145 = system: DU-145
MCF7 = system: MCF7
MDA-MB-231 = system: MDA-MB-231
OVCAR-3 = system: OVCAR-3
LOX IMVI = system: LOX IMVI
ACHN = system: ACHN
TK-10 = system: TK-10
NCI-H23 = system: NCI-H23
HOP-62 = system: HOP-62
SK-MEL-28 = system: SK-MEL-28
T47D = system: T47D
HT-29 = system: HT-29
UO-31 = system: UO-31
Malme-3M = system: Malme-3M
SK-OV-3 = system: SK-OV-3
IGROV-1 = system: IGROV-1
MDA-N = system: MDA-N
CAKI-1 = system: CAKI-1
OVCAR-4 = system: OVCAR-4
SNB-75 = system: SNB-75
CCRF-CEM = system: CCRF-CEM
HCT-15 = system: HCT-15
RPMI-8226 = system: RPMI-8226
SW-620 = system: SW-620
KM12 = system: KM12
786-0 = system: 786-0
COLO 205 = system: COLO 205
HOP-92 = system: HOP-92
A498 = system: A498
NCI-H522 = system: NCI-H522
HL-60 = system: HL-60
SR = system: SR
MOLT-4 = system: MOLT-4
SF-268 = system: SF-268
NCI-H226 = system: NCI-H226
HCC 2998 = system: HCC 2998
SN12C = system: SN12C
Hs-578T = system: Hs-578T
K562 = system: K562
OVCAR-8 = system: OVCAR-8
U-251 = system: U-251
UACC-62 = system: UACC-62
UACC-257 = system: UACC-257
MDA-MB-435 = system: MDA-MB-435
PC-3 = system: PC-3
A549 = system: A549
SF-539 = system: SF-539
SK-MEL-2 = system: SK-MEL-2
EKVX = system: EKVX
NCI/ADR-RES = system: NCI/ADR-RES
SNB-19 = system: SNB-19
HCT-116 = system: HCT-116

`CN(C)CC1CCC/C(=C\c2ccc(Cl)cc2)C1=O` (centres undefined) was tested, and the GI50 (NCI-H460) was 17.3 µM (inactive), the GI50 (BT-549) was 1.73 µM (inactive) and the GI50 (SK-MEL-5) was 4 µM (inactive). The GI50 (M14) was 2.28 µM (inactive), the GI50 (SF-295) was 14.2 µM (inactive) and the GI50 (OVCAR-5) was 16.9 µM (inactive). For the same compound, the GI50 (DU-145) was 15.5 µM (inactive), the GI50 (MCF7) was 1.24 µM (inactive) and the GI50 (MDA-MB-231) was 3.05 µM (inactive). The GI50 (OVCAR-3) was 3.21 µM (inactive), the GI50 (LOX IMVI) was 1.63 µM (inactive) and the GI50 (ACHN) was 2.57 µM (inactive). The GI50 (TK-10) was 3.9 µM (inactive), the GI50 (NCI-H23) was 8.02 µM (inactive) and the GI50 (HOP-62) was 15.8 µM (inactive). For the same compound, the GI50 (SK-MEL-28) was 3.46 µM (inactive), the GI50 (T47D) was 3.49 µM (inactive) and the GI50 (HT-29) was 9.27 µM (inactive). For the same compound, the GI50 (UO-31) was 2.25 µM (inactive), the GI50 (Malme-3M) was 1.91 µM (inactive) and the GI50 (SK-OV-3) was 10.9 µM (inactive). For the same compound, the GI50 (IGROV-1) was 3.21 µM (inactive), the GI50 (MDA-N) was 1.94 µM (inactive) and the GI50 (CAKI-1) was 1.93 µM (inactive). For the same compound, the GI50 (OVCAR-4) was 2.79 µM (inactive), the GI50 (SNB-75) was 3.25 µM (inactive) and the GI50 (CCRF-CEM) was 0.713 µM (active). The GI50 (HCT-15) was 2.05 µM, the GI50 (RPMI-8226) was 0.254 µM (active) and the GI50 (SW-620) was 1.93 µM (inactive). For the same compound, the GI50 (KM12) was 1.69 µM (inactive), the GI50 (786-0) was 1.68 µM (inactive) and the GI50 (COLO 205) was 2.12 µM (inactive). The GI50 (HOP-92) was 3.15 µM (inactive), the GI50 (A498) was 17.3 µM (inactive) and the GI50 (NCI-H522) was 1.75 µM (inactive). For the same compound, the GI50 (HL-60) was 1.37 µM (inactive), the GI50 (SR) was 1.33 µM (inactive) and the GI50 (MOLT-4) was 0.9 µM (active). The GI50 (SF-268) was 5.2 µM (inactive), the GI50 (NCI-H226) was 14.7 µM (inactive) and the GI50 (HCC 2998) was 7.38 µM (inactive). The GI50 (SN12C) was 3.33 µM (inactive), the GI50 (Hs-578T) was 2.92 µM (inactive) and the GI50 (K562) was 1 µM (active). For the same compound, the GI50 (OVCAR-8) was 3.85 µM (inactive), the GI50 (U-251) was 3.71 µM (inactive) and the GI50 (UACC-62) was 2.08 µM (inactive). The GI50 (UACC-257) was 4.91 µM (inactive), the GI50 (MDA-MB-435) was 3.83 µM (inactive) and the GI50 (PC-3) was 2.67 µM (inactive). The GI50 (A549) was 16.9 µM (inactive), the GI50 (SF-539) was 10.6 µM (inactive) and the GI50 (SK-MEL-2) was 1.41 µM (inactive). The GI50 (EKVX) was 11.2 µM (inactive), the GI50 (NCI/ADR-RES) was 3.62 µM (inactive) and the GI50 (SNB-19) was 11.8 µM (inactive). The GI50 (HCT-116) was 1.8 µM (inactive).

In the case of `O=C1COc2cc(N3CCN(c4cccc(C(F)(F)F)c4)CC3)ccc2N1`, the GI50 (NCI-H460) is reported as > 100 µM (inactive), the GI50 (BT-549) is reported as > 100 µM (inactive) and the GI50 (SK-MEL-5) is reported as > 100 µM (inactive). The GI50 (M14) was > 100 µM (inactive), the GI50 (SF-295) was > 100 µM (inactive) and the GI50 (OVCAR-5) was > 100 µM (inactive). The GI50 (DU-145) was > 100 µM (inactive), the GI50 (MCF7) was > 100 µM (inactive) and the GI50 (MDA-MB-231) was > 100 µM (inactive). The GI50 (OVCAR-3) was > 100 µM (inactive), the GI50 (LOX IMVI) was > 100 µM (inactive) and the GI50 (ACHN) was > 100 µM (inactive). The GI50 (TK-10) was > 100 µM (inactive), the GI50 (NCI-H23) was > 100 µM (inactive) and the GI50 (HOP-62) was > 100 µM (inactive). The GI50 (SK-MEL-28) was > 100 µM (inactive), the GI50 (T47D) was > 100 µM (inactive) and the GI50 (HT-29) was > 100 µM (inactive). For the same compound, the GI50 (UO-31) was > 100 µM (inactive), the GI50 (SK-OV-3) was > 100 µM (inactive) and the GI50 (IGROV-1) was > 100 µM (inactive). For the same compound, the GI50 (MDA-N) was > 100 µM (inactive), the GI50 (CAKI-1) was > 100 µM (inactive) and the GI50 (OVCAR-4) was > 100 µM (inactive). The GI50 (SNB-75) was > 100 µM (inactive), the GI50 (CCRF-CEM) was > 100 µM (inactive) and the GI50 (HCT-15) was > 100 µM. For the same compound, the GI50 (RPMI-8226) was > 100 µM (inactive), the GI50 (SW-620) was > 100 µM (inactive) and the GI50 (KM12) was > 100 µM (inactive). For the same compound, the GI50 (786-0) was > 100 µM (inactive), the GI50 (COLO 205) was > 100 µM (inactive) and the GI50 (HOP-92) was > 100 µM (inactive). The GI50 (NCI-H522) was 86.3 µM (inactive), the GI50 (HL-60) was > 100 µM (inactive) and the GI50 (SR) was > 100 µM (inactive). For the same compound, the GI50 (MOLT-4) was > 100 µM (inactive), the GI50 (SF-268) was > 100 µM (inactive) and the GI50 (NCI-H226) was > 100 µM (inactive). The GI50 (HCC 2998) was > 100 µM (inactive), the GI50 (SN12C) was > 100 µM (inactive) and the GI50 (Hs-578T) was > 100 µM (inactive). The GI50 (K562) was > 100 µM (inactive), the GI50 (OVCAR-8) was > 100 µM (inactive) and the GI50 (U-251) was > 100 µM (inactive). For the same compound, the GI50 (UACC-62) was > 100 µM (inactive), the GI50 (UACC-257) was > 100 µM (inactive) and the GI50 (MDA-MB-435) was > 100 µM (inactive). For the same compound, the GI50 (PC-3) was > 100 µM (inactive), the GI50 (A549) was > 100 µM (inactive) and the GI50 (SF-539) was > 100 µM (inactive). The GI50 (SK-MEL-2) was > 100 µM (inactive), the GI50 (EKVX) was > 100 µM (inactive) and the GI50 (NCI/ADR-RES) was > 100 µM (inactive). For the same compound, the GI50 (SNB-19) was > 100 µM (inactive) and the GI50 (HCT-116) was > 100 µM (inactive).
